US20250115595A1, “INHIBITORS OF HYPOXIA-INDUCIBLE FACTORS” (The Johns Hopkins University, priority 2021, published 2025)

Experiments:
[1] = test system: intratumoral gene expression; assay: RT-qPCR and ELISA of Hepa1-6 tumor tissue; type: in vivo, mouse
Description: RNA was extracted using TRIzol Reagent (ThermoFisher). Quantitative Real-time PCR was conducted using SYBR Green PCR Master Mix (BioRad) and reactions were run using the BioRad thermal cycler (BioRad). The mRNA expression of target genes was normalized to the expression of 18S rRNA and the fold change (FC) was calculated based on the threshold cycle (Ct) as
Human (EPO, SCF, SDF1a, VEGFA) and mouse (Cxcl1, Cxcl2, Cxcl9, Cxcl10, Il6, Il10, IL22, Vegfa) protein concentrations in tumor homogenates were determined using ELISA kits (Table 4) from Novus Biologicals. Optical density was obtained at 450 nm (corrected for readings at 570 nm) using the VICTOR Nivo plate reader (PerkinElmer). Sample protein concentration was calculated by linear regression from a standard curve.

[2] = test system: HIF-1α and HIF-2α; assay: HIF accumulation in hypoxic HUVECs; type: cell-based, human; conditions: 10 μM, 4 hours
Source text: Vascular endothelial cells also secrete angiogenic mediators that contribute to the progression of diabetic eye disease (Y. Qin et al., Sci Adv 8, eabm1896 (2022)). Exposure of human umbilical vein endothelial cells (HUVECs) to hypoxia induced HIF-1α and HIF-2α protein accumulation, which was inhibited by 32-134D (FIG. 30). […] Of note, ANGPT2 and VE-PTP, two emerging targets for the treatment of diabetic eye disease, are both expressed specifically by vascular cells (G. Fachinger, et al., Oncogene 18, 5948-5953 (1999); P. C. Maisonpierre et al., Science 277, 55-60 (1997)).
Cells culture and reagents: MIO-M1 cells were a gift from Dr. Astrid Limb (University College London, Institute of Ophthalmology, London, United Kingdom). MIO-M1 and HUVEC cells were cultured in DMEM with 10% (vol/vol) FBS (Quality Biological) and 1% penicillin/streptomycin (Cellgro). Hypoxia chambers were used to expose cells. Evans Blue (E2129) was purchased from Sigma-Aldrich.
Immunoblot assays and ELISAs: Cell, neurosensory retina, and D120 retinal organoid lysates were subjected to 4-15% gradient SDS/PAGE (Invitrogen). Immunoblot assays were performed as previously described (X. Xin et al., 2013, Proc Natl Acad Sci USA 110, E3425-3434).

[3] = test system: STZ mice; assay: STZ diabetic mouse model, intraperitoneal dosing; type: in vivo; conditions: 5 daily IP injections 40 mg/kg
Description: The ability of 32-143D to inhibit vascular permeability in diabetic patients was evaluated using the streptozotocin (STZ) model for diabetic macular edema. 8-to-10-week-old C57BL/6 mice were administered STZ by IP injection. Hyperglycemia (serum glucose >250 mg/dL) was confirmed by glucometer 2 weeks later. After 6 months of sustained hyperglycemia, mice were treated with 5 daily IP injections with 32-134D at 40 mg/kg or with vehicle control. 24 hours after the fifth IP injection, mice were euthanized, Evans blue perfusion was performed, and retina flat mounts were examined for vascular leakage.
Vascular permeability by Evans blue tracer method: Mice were anesthetized with a mixture of ketamine (50 mg/kg) and xylazine (5 mg/kg) and subjected to Evans blue (Sigma) (50 mg/kg) perfusion by penile vein injection. […] Images were captured by Zeiss fluorescent microscope or confocal microscopy and fluorescence quantified by image J software (NIH). […] Blinded quantification of the number of leaking vessels was performed by manual counting major leakage from capillaries from retinas of each group. Non-capillary artifactual Evans blue or FITC-dextran leakage due to flat mount processing as well as minor leakages were not included in the quantitation. […] Random fields were chosen from retinas where leakages were absent to determine baseline fluorescence that arise from capillaries. […]

[4] = test system: C57BL/6 mice; assay: Laser CNV model, intraperitoneal dosing; type: in vivo, mouse
Description: The laser CNV model for neovascular (wet) age-related macular degeneration was used to assess the efficacy of 32-134D in blocking HIF-regulated gene expression in the eye (FIG. 20A). C57BL/6 mice were treated with laser on day 0. Beginning on day 2, mice were treated with 5 daily intraperitoneal (IP) injections (day 2 to day 6) with 32-134D at 40 mg/kg or with vehicle control. On day 7, choroidal flat mounts were prepared and stained with isolectin-B4 to examine the CNV lesions. The expression of Vegf (FIG. 20B) and Angpt14 (FIG. 20C) mRNA was also measured at day 7 following laser treatment.
C57BL/6 mice were treated with laser on day 0. Beginning on day 2, mice were treated with 5 daily IP injections (day 2 to day 6) with 32-134D at 40 mg/kg or with vehicle control. On day 7, mice were euthanized and choroidal flat mounts were stained with isolectin-B4 to examine the area of CNV lesions.

## Brc1ccc2c(-c3csc(-c4c[nH]c5c(Br)cccc45)n3)c[nH]c2c1 [Compound 32-134D, 4-(6-bromo-1H-indol-3-yl)-2-(7-bromo-1H-indol-3-yl)thiazole]
[1]; Angpt14, Epo, Pgf, Vegfa, B7h4, Cd47, Cd70, Cd73, Glut1, Ldha, Pdl1, Tim3, RT-qPCR
  tumor mRNAs encoding angiogenic factors and proteins mediating immunosuppression: significantly decreased
[1]; ELISA on tumor lysates
  Cxcl1, Il10 and Vegfa protein levels in tumors: significantly decreased levels
  Cxcl9 and Cxcl10 protein levels in tumors: significantly increased levels
[1]; RT-qPCR
  tumor expression of Cxcl9 and Cxcl10 mRNA: increased
[1]; mouse, in vivo
  Cxcl1, Il6 and Il10 mRNA levels in tumor tissue: decreased
  IL22 mRNA and protein expression in Hepa1-6 tumors: inhibited
[2]
  hypoxia-induced HIF-1α and HIF-2α protein accumulation: inhibited
[3]
  vascular leakage (Evans blue fluorescence intensity): significantly decreased vascular leakage
[4]; 40 mg/kg IP, day 7 after laser
  Vegf mRNA in eyes: significantly decreased
[4]; 5 daily IP injections 40 mg/kg, day 7
  CNV lesions: marked decrease in CNV
[4]; 20 or 40 mg/kg IP, day 7 after laser
  Angpt14 mRNA expression in eyes: significantly decreased
